From patent US20170184612A1, “USE OF LEUKOCYTES AND NOVEL BIOMARKERS IN THE DIAGNOSIS, CONFIRMATION, AND TREATMENT OF A NEUROLOGICAL DISORDER” (The Trustees of Columbia University in the City of New York, priority 2014, published 2017)

Legend:
Assay type in all cases: cell-based, human
[1] = tested on: peripheral blood mononuclear cells (PBMC), T cells; assay: ELISpot assay, gamma-interferon release (SFC) after stimulation with a-synuclein epitope pools; conditions: for IFNg Peptide + (donors positive to the peptide): of donors tested (peptide); for Pool +: IFNg, Pool Stimulated, number of donors with a positive response, Donors tested 1; for IFNg Peptide +: number of donors positive to the single peptide
Summary of the method: (§1)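 Samples came from 44 PD patients and 24 matched controls, tested blindly. Their PBMC were stimulated for 22 hours at 37 C with α-synuclein peptide pools, and pools that responded were resolved into individual epitopes.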

[2] = tested on: peripheral blood mononuclear cells (PBMC), T cells; assay: ELISpot assay, IL-5 release (SFC) after stimulation with a-synuclein epitope pools; conditions: for IL-g Peptide + (donors positive to the peptide): of donors tested (peptide); for IL-g Peptide +: number of donors positive to the single peptide
Summary of the method: as §1

[3] = tested on: peripheral blood mononuclear cells (PBMC), T cells; assay: ELISpot assay, IFNg and IL-5 reactivity combined, T cell response to α-syn epitopes; conditions: for epitope identified by deconvolution of T cell response, in words: PD patients, region including Y39
Procedure: Blood from age matched controls and PD patients were obtained and mononuclear cells were isolated by gradient centrifugation.
Release of the cytokines gamma-interferon, which measures activation of CD4+ and/or CD8+ T cells, and the interleukin, IL-5, which measures activation of CD4+ T cells was measured by ELISpot assay. […] After 22 hours of stimulation at 37 C, the cells were removed and release of cytokines was measured by colorimetric detection of spot-forming cells (SFC). Confirmed release of cytokine is determined by the presence of a minimum of 20 SFC per million cells.
The binding algorithms in SubAim 1 predict how well the peptides would bind to MHC if present, but not if they are present in patients. To determine this, the presence of T cell response against the candidate antigens by patient blood-derived peripheral blood mononuclear cells (PBMC) is assessed by ELISPOT assays upon stimulation with the peptides. This assay detects and quantifies cytokine release (in this case, IFNγ and IL-5) from specific activated T cells.
Data were obtained from blood samples (25 ml) from 44 PD patients and 24 age-matched controls. The experiments were conducted blindly. PBMCs from these samples were isolated and exposed to pools comprising the 122 candidate class I and class II antigens and phosphorylated S129 epitopes generated in Subaim 1. For the PBMCs responsive to the pooled peptides, the response was then deconvoluted to identify individual epitopes.
PMBC fractions are recovered by standard methods with Ficoll gradient and T cells expansion (Oseroff et al., 2010). The methods for the analysis of T cell reactions and measurement of cytokines production using the enzyme-linked immunosorbent spot (ELISPOT) assay are published in analogous experiments to discover antigens in multiple sclerosis (Lolli et al., 2013) and in hay fever allergens (Oseroff et al., 2010). T cell responses are determined by measuring IFNγ and IL-5 release by ELISPOT. Statistical analysis of differences between populations is expected to be non-parametric and analyzed with the U-Mann-Whitney test. If there were a normal distribution of response, which is a priori unlikely as some patients have no T cell response, with an SD=1, 8 patients per group would be required to provide a p>90% that the study detect a >2 fold difference at a two-sided 0.05 significance level.

[4] = Normals Summary, single peptide
[5] = Patients Summary, PD patients, single peptide
[6] = second 'Pool Stimulated' section (from r296), 12 donors tested
[7] = peptide + / donors tested (peptide), second 'Pool Stimulated' section (from r296), 12 donors tested
[8] = single peptide, second 'Pool Stimulated' section (from r296), 12 donors tested

| Substance | IFNg Peptide + (donors positive to the peptide) ([1]; Patients Summary, PD patients) | IFNg Avg SFC [1, 5] [SFC] | IFNg Response Frequency [1, 5] [%] | IFNg Total SFC [1, 5] [SFC] | IL-g Peptide + (donors positive to the peptide) ([2]; Patients Summary, PD patients) | IL-g Avg SFC [2, 5] [SFC] | IL-g Response Frequency [2, 5] [%] | IL-g Total SFC [2, 5] [SFC] | Pool + [1] | IFNg Peptide + [1, 6] | IFNg Response Frequency [1, 7] [%] | IFNg Total SFC [1, 8] [SFC] | IL-g Peptide + [2, 6] | IL-g Response Frequency [2, 7] [%] | IL-g Total SFC [2, 8] [SFC] | also measured |
| --- | --- | --- | --- | --- | --- | --- | --- | --- | --- | --- | --- | --- | --- | --- | --- | --- |
| 3521.001 (VFMKGLSKA; listed as Homo sapiens) | 1 | 75 | 33 | 75 | 1 | 634 | 33 | 634 |  |  |  |  |  |  |  | IFNg Peptide + (donors positive to the peptide) ([1]; Normals Summary): 1; IFNg Avg SFC [1, 4]: 220 SFC; IFNg Response Frequency [1, 4]: 100%; IFNg Total SFC [1, 4]: 220 SFC; IL-g Peptide + (donors positive to the peptide) ([2]; Normals Summary): 1; IL-g Avg SFC [2, 4]: 193 SFC; IL-g Response Frequency [2, 4]: 100%; IL-g Total SFC [2, 4]: 193 SFC; Peptides + in Patients & Normals ([3]; flag 1/0 per peptide): 1 |
| 3521.0067 (KTKEGVVHG; listed as Homo sapiens) | 0 |  | 0 | 0 | 0 |  | 0 | 0 | 0 |  |  |  |  |  |  |  |
| 3521.0068 (GVAEAPGKTK; listed as Homo sapiens) | 0 |  | 0 | 0 | 0 |  | 0 | 0 | 0 | 0 | 0 | 0 | 0 | 0 | 0 |  |
| 3521.0069 (GVAEAAGKTK; listed as Homo sapiens) | 1 | 53 | 13 | 53 | 0 |  | 0 | 0 | 0 | 0 | 0 | 0 | 0 | 0 | 0 |  |
| 3521.0071 (YVGSKTKEGVVHGVT; listed as Homo sapiens) | 0 |  | 0 | 0 | 1 | 35 | 17 | 35 | 0 |  |  |  |  |  |  |  |
| 3521.0072 (EGVVHGVTTVAEKTK; listed as Homo sapiens) | 0 |  | 0 | 0 | 0 |  | 0 | 0 | 1 | 1 | 50 | 93.3 | 0 | 0 | 0 | IFNg Avg SFC [1, 8]: 93.3 SFC |
| 3521.0073 (TTVAEKTKEQVTNVG; listed as Homo sapiens) | 0 |  | 0 | 0 | 0 |  | 0 | 0 | 1 | 0 | 0 | 0 | 0 | 0 | 0 |  |
| 3521.0075 (KQGVAEAPGKTKEGV; listed as Homo sapiens) | 3 | 70 | 38 | 209 | 1 | 58 | 13 | 58 | 1 | 0 | 0 | 0 | 1 | 50 | 147 | IL-g Avg SFC [2, 8]: 147 SFC |
| 3521.0076 (PGKTKEGVLYVGSKT; listed as Homo sapiens) | 2 | 40 | 25 | 80 | 1 | 89 | 13 | 89 | 1 | 1 | 50 | 300 | 1 | 50 | 120 | IFNg Avg SFC [1, 8]: 300 SFC; IL-g Avg SFC [2, 8]: 120 SFC |
| 3521.0077 (KTKEGVLYVGSKTKK; listed as Homo sapiens) | 5 | 701 | 63 | 3505 | 6 | 595 | 75 | 3565 | 1 | 2 | 100 | 3020 | 2 | 100 | 1814 | IFNg Avg SFC [1, 8]: 1510 SFC; IL-g Avg SFC [2, 8]: 3907 SFC |
| 3521.0078 (YVGSKTKKGVVHGVA; listed as Homo sapiens) | 1 | 474 | 17 | 474 | 1 | 93 | 17 | 93 | 0 |  |  |  |  |  |  |  |
| 3521.0079 (KGVVHGVATVAEKTK; listed as Homo sapiens) | 0 |  | 0 | 0 | 0 |  | 0 | 0 | 1 | 0 | 0 | 0 | 1 | 50 | 284 | IL-g Avg SFC [2, 8]: 284 SFC |
| 3521.0084 (YVGSKTKEGVVHGVA; listed as Homo sapiens) | 0 |  | 0 | 0 | 0 |  | 0 | 0 | 0 |  |  |  |  |  |  |  |
| 3521.0085 (EGVVHGVATVAEKTK; listed as Homo sapiens) | 0 |  | 0 | 0 | 0 |  | 0 | 0 | 1 | 0 | 0 | 0 | 1 | 50 | 80 | IL-g Avg SFC [2, 8]: 80 SFC |
| 3521.0086 (ATVAEKTKEQVTNVG; listed as Homo sapiens) | 0 |  | 0 | 0 | 0 |  | 0 | 0 | 1 | 0 | 0 | 0 | 0 | 0 | 0 |  |
| GVLYVGSKTK (listed as Homo sapiens) |  |  |  |  |  |  |  |  |  |  |  |  |  |  |  | epitope identified by deconvolution of T cell response, in words [3]: antigenic |
| VLYVGSKTK (listed as Homo sapiens) |  |  |  |  |  |  |  |  |  |  |  |  |  |  |  | epitope identified by deconvolution of T cell response, in words [3]: antigenic |
